Assays:
PDX model CS264 = assay: Colorectal cancer PDX transplantation tumor model; assay type: in vivo, nude mice or NOD/SCID mice; conditions: day 32 after administration; CTB006 10 mg/kg iv qd, Ponatinib 30 mg/kg p.o qd
Text: (§4) To test the in vivo pharmacodynamic efficacy of CTB006 in combination with Ponatinib, several tumor animal models were selected for testing, including pancreatic cancer cells MIA-PACA-2 CDX model and multiple PDX models covering multiple cancers of intestinal cancer (CS237, CS263, CS264), lung cancer (CS225), and gastric cancer (CS266, GAS033). For mathematical statistics, ANOVA analysis was used, and P<0.05 indicates a statistically significant difference and is marked with *; P<0.01 indicates a highly significant statistical difference and is marked with **.
(§5) Patient-derived transplantation tumor models were established subcutaneously in nude mice or NOD/SCID mice, which was administered with CTB006 alone (10 mg/kg, iv, qd), Ponatinib alone (30 mg/kg, p.o, qd) the combination of them, while the control group was given an equal volume of saline.

PDX model CS266 = assay: Gastric cancer PDX transplantation tumor model; conditions: day 31; CTB006 10 mg/kg iv qd, Ponatinib 30 mg/kg p.o qd
Experimental: To test the in vivo pharmacodynamic efficacy of CTB006 in combination with Ponatinib, several tumor animal models were selected for testing, including pancreatic cancer cells MIA-PACA-2 CDX model and multiple PDX models covering multiple cancers of intestinal cancer (CS237, CS263, CS264), lung cancer (CS225), and gastric cancer (CS266, GAS033).
as §5
At day 31 after administration, when the mean tumor volume of the negative control group and CTB006 alone group reached 1 cm^3, the negative control group was sacrificed, and the administration was stopped for 5-Fu positive control group, Ponatinib alone group and the combination group and the observation continued.

A549 cells = assay: Tumor cell survival by ATPlite after 24 h incubation; CDI; assay type: cell-based; conditions: for CDI: DR5 agonist in combination with Ponatinib
Experimental: (§1) The interaction between CTB006 antibody and Ponatinib: we used coefficient of drug interaction (CDI)^[1,2] to evaluate the combined effect of CTB006 antibody and chemotherapeutic drugs. CDI was calculated according to the following formula: CDI=AB/A×B; AB was the ratio of the detection values of the two-drug combination group to the control group (survival rate of the drug combination group), and A or B was the ratio of the detection values of each individual drug to the control group (survival rate of the drug alone group).
(§2) The survival of each tumor cell was observed by ATPlite method after incubation at 37° C., 5% CO2 for 24 h.
(§3) Methods were as described above.

MCF-7 cells = assay: as above; assay type: cell-based; conditions: for CDI: DR5 agonist in combination with Ponatinib
Experimental: as §1, §2, §3

S2VP10 cells = assay: as above; assay type: cell-based; conditions: for CDI: DR5 agonist in combination with Ponatinib
Experimental: as §1, §2, §3

HT29 cells = assay: as above; assay type: cell-based
Experimental: as §1, §2

Huh-1 cells = assay: as above; assay type: cell-based
Experimental: as §1, §2

N87 cells = assay: as above; assay type: cell-based
Experimental: as §1, §2

S2Lm7AA cells = assay: as above; assay type: cell-based
Experimental: as §1, §2

SGC-7901 cells = assay: as above; assay type: cell-based
Experimental: as §1, §2

SK-HEP-1 cells = assay: as above; assay type: cell-based
Experimental: as §1, §2

TE1 cells = assay: as above; assay type: cell-based
Experimental: as §1, §2

primary tumor cells S1 = assay: Killing of primary tumor cells from ovarian cancer ascites; CDI; assay type: cell-based
Experimental: as §1, §2

primary tumor cells S2 = assay: as above; assay type: cell-based
Experimental: as §1, §2

PDX model CS237 = assay: Colorectal cancer PDX transplantation tumor model; assay type: in vivo, nude mice or NOD/SCID mice; conditions: day 52 after administration; CTB006 10 mg/kg iv qd, Ponatinib 30 mg/kg p.o qd
Text: as §4, §5

PDX model CS225 = assay: Lung cancer PDX transplantation tumor model; assay type: in vivo, nude mice or NOD/SCID mice; conditions: day 28 after administration; CTB006 10 mg/kg iv qd, Ponatinib 30 mg/kg p.o qd
Text: as §4, §5

PDX model GAS033 = assay: Gastric cancer PDX transplantation tumor model; assay type: in vivo, nude mice or NOD/SCID mice; conditions: day 16 after administration; CTB006 10 mg/kg iv qd, Ponatinib 30 mg/kg p.o qd
Text: as §4, §5

PDX model CS263 = assay: Colorectal cancer PDX transplantation tumor model
Text: as §4, §5

[1] = system: MIA-Paca-2 transplanted tumor; assay: Pancreatic cancer CDX model, subcutaneous transplantation; conditions: CTB006 10 mg/kg iv qw, Ponatinib 30 mg/kg p.o qd, alone or in combination, 22 days; euthanized at tumor volume 1 cm^3
Experimental: The CDX model was established by subcutaneous transplantation of MIA-Paca-2 in BALB/c nude mice (Vital River), and drug administration was started when the tumor volume was about 0.1 cm^3, and when it reached 1 cm^3, the animals were ethically euthanized and survival time was recorded. CTB006 (10 mg/kg, iv, qw) and Ponatinib (30 mg/kg, p.o, qd) were administered alone or in combination for treatment groups, and the control group was administered an equal volume of saline.

O=c1[nH]cc(F)c(=O)[nH]1 [5-Fu]
tumor inhibition rates (TGI) (PDX model CS264): 31.2%
tumor inhibition rates (TGI) (PDX model CS266): 57.5%

Cc1ccc(C(=O)Nc2ccc(CN3CCN(C)CC3)c(C(F)(F)F)c2)cc1C#Cc1cnc2cccnn12 [Ponatinib]
Survival Rate (%) (A549 cells; Ponatinib alone 15.625 nM): 101.54%
Survival Rate (%) (A549 cells; Ponatinib alone 31.25 nM): 106.99%
Survival Rate (%) (A549 cells; Ponatinib alone 62.5 nM): 105.05%
Survival Rate (%) (A549 cells; Ponatinib alone 125 nM): 107.07%
Survival Rate (%) (A549 cells; Ponatinib alone 250 nM): 104.14%
Survival Rate (%) (A549 cells; Ponatinib alone 500 nM): 93.76%
Survival Rate (%) (A549 cells; Ponatinib alone 1000 nM): 81.32%
Survival Rate (%) (MCF-7 cells; Ponatinib alone 15.625 nM): 102.70%
Survival Rate (%) (MCF-7 cells; Ponatinib alone 62.5 nM): 103.26%
Survival Rate (%) (MCF-7 cells; Ponatinib alone 250 nM): 94.14%
Survival Rate (%) (MCF-7 cells; Ponatinib alone 1000 nM): 68.81%
Survival Rate (%) (S2VP10 cells; Ponatinib alone 15.625 nM): 98.02%
Survival Rate (%) (S2VP10 cells; Ponatinib alone 31.25 nM): 97.47%
Survival Rate (%) (S2VP10 cells; Ponatinib alone 62.5 nM): 99.87%
Survival Rate (%) (S2VP10 cells; Ponatinib alone 125 nM): 96.84%
Survival Rate (%) (S2VP10 cells; Ponatinib alone 250 nM): 87.54%
Survival Rate (%) (S2VP10 cells; Ponatinib alone 500 nM): 75.12%
Survival Rate (%) (S2VP10 cells; Ponatinib alone 1000 nM): 69.06%
Survival Rate (%) (HT29 cells; Ponatinib alone 15.625 nM): 102.78%
Survival Rate (%) (HT29 cells; Ponatinib alone 31.25 nM): 103.51%
Survival Rate (%) (HT29 cells; Ponatinib alone 62.5 nM): 102.93%
Survival Rate (%) (HT29 cells; Ponatinib alone 125 nM): 95.77%
Survival Rate (%) (HT29 cells; Ponatinib alone 250 nM): 84.39%
Survival Rate (%) (HT29 cells; Ponatinib alone 500 nM): 87.91%
Survival Rate (%) (HT29 cells; Ponatinib alone 1000 nM): 80.77%
Survival Rate (%) (Huh-1 cells; Ponatinib alone 15.625 nM): 97.49%
Survival Rate (%) (Huh-1 cells; Ponatinib alone 31.25 nM): 92.59%
Survival Rate (%) (Huh-1 cells; Ponatinib alone 62.5 nM): 91.15%
Survival Rate (%) (Huh-1 cells; Ponatinib alone 125 nM): 83.68%
Survival Rate (%) (Huh-1 cells; Ponatinib alone 250 nM): 79.87%
Survival Rate (%) (Huh-1 cells; Ponatinib alone 500 nM): 70.61%
Survival Rate (%) (Huh-1 cells; Ponatinib alone 1000 nM): 64.68%
Survival Rate (%) (N87 cells; Ponatinib alone 15.625 nM): 87.89%
Survival Rate (%) (N87 cells; Ponatinib alone 31.25 nM): 83.79%
Survival Rate (%) (N87 cells; Ponatinib alone 62.5 nM): 84.36%
Survival Rate (%) (N87 cells; Ponatinib alone 125 nM): 83.71%
Survival Rate (%) (N87 cells; Ponatinib alone 250 nM): 82.65%
Survival Rate (%) (N87 cells; Ponatinib alone 500 nM): 84.46%
Survival Rate (%) (N87 cells; Ponatinib alone 1000 nM): 82.19%
Survival Rate (%) (S2Lm7AA cells; Ponatinib alone 15.625 nM): 90.79%
Survival Rate (%) (S2Lm7AA cells; Ponatinib alone 31.25 nM): 90.05%
Survival Rate (%) (S2Lm7AA cells; Ponatinib alone 62.5 nM): 85.82%
Survival Rate (%) (S2Lm7AA cells; Ponatinib alone 125 nM): 87.89%
Survival Rate (%) (S2Lm7AA cells; Ponatinib alone 250 nM): 79.85%
Survival Rate (%) (S2Lm7AA cells; Ponatinib alone 500 nM): 76.76%
Survival Rate (%) (S2Lm7AA cells; Ponatinib alone 1000 nM): 77.11%
Survival Rate (%) (SGC-7901 cells; Ponatinib alone 15.625 nM): 100.08%
Survival Rate (%) (SGC-7901 cells; Ponatinib alone 31.25 nM): 98.30%
Survival Rate (%) (SGC-7901 cells; Ponatinib alone 62.5 nM): 99.90%
Survival Rate (%) (SGC-7901 cells; Ponatinib alone 125 nM): 95.83%
Survival Rate (%) (SGC-7901 cells; Ponatinib alone 250 nM): 86.80%
Survival Rate (%) (SGC-7901 cells; Ponatinib alone 500 nM): 75.77%
Survival Rate (%) (SGC-7901 cells; Ponatinib alone 1000 nM): 61.42%
Survival Rate (%) (SK-HEP-1 cells; Ponatinib alone 15.625 nM): 95.48%
Survival Rate (%) (SK-HEP-1 cells; Ponatinib alone 31.25 nM): 92.47%
Survival Rate (%) (SK-HEP-1 cells; Ponatinib alone 62.5 nM): 92.34%
Survival Rate (%) (SK-HEP-1 cells; Ponatinib alone 125 nM): 84.53%
Survival Rate (%) (SK-HEP-1 cells; Ponatinib alone 250 nM): 77.45%
Survival Rate (%) (SK-HEP-1 cells; Ponatinib alone 500 nM): 68.54%
Survival Rate (%) (SK-HEP-1 cells; Ponatinib alone 1000 nM): 67.85%
Survival Rate (%) (TE1 cells; Ponatinib alone 15.625 nM): 107.94%
Survival Rate (%) (TE1 cells; Ponatinib alone 31.25 nM): 103.25%
Survival Rate (%) (TE1 cells; Ponatinib alone 62.5 nM): 104.04%
Survival Rate (%) (TE1 cells; Ponatinib alone 125 nM): 100.27%
Survival Rate (%) (TE1 cells; Ponatinib alone 250 nM): 97.30%
Survival Rate (%) (TE1 cells; Ponatinib alone 500 nM): 89.97%
Survival Rate (%) (TE1 cells; Ponatinib alone 1000 nM): 73.00%
Survival Rate (%) (primary tumor cells S1; Ponatinib alone 25 nM): 89.60%
Survival Rate (%) (primary tumor cells S1; Ponatinib alone 50 nM): 101.09%
Survival Rate (%) (primary tumor cells S1; Ponatinib alone 100 nM): 85.81%
Survival Rate (%) (primary tumor cells S1; Ponatinib alone 200 nM): 82.23%
Survival Rate (%) (primary tumor cells S2; Ponatinib alone 25 nM): 101.93%
Survival Rate (%) (primary tumor cells S2; Ponatinib alone 50 nM): 109.27%
Survival Rate (%) (primary tumor cells S2; Ponatinib alone 100 nM): 98.46%
Survival Rate (%) (primary tumor cells S2; Ponatinib alone 200 nM): 90.46%
tumor inhibition rate (TGI) (PDX model CS237): 43.8%
tumor inhibition rates (TGI) (PDX model CS264): 32.4%
tumor inhibition rates (TGI) (PDX model CS225): 50%
tumor inhibition rate (TGI) (PDX model GAS033): 37%
tumor inhibition rates (TGI) (PDX model CS266): 87.7%
tumor inhibition rates (TGI) (PDX model CS263; day 44 after administration, CTB006 10 mg/kg iv qd, Ponatinib 30 mg/kg p.o qd): 45.3%
median survival (PDX model CS263; time to reach the mean tumor volume of 1.0 cm^3 as cutoff, administration stopped at day 44): 56 days
median survival time [1]: 34.5 days

CC(=O)O[C@H]1C(=O)[C@@]2(C)[C@H]([C@H](OC(=O)c3ccccc3)[C@]3(O)C[C@H](OC(=O)[C@H](O)[C@@H](NC(=O)c4ccccc4)c4ccccc4)C(C)=C1C3(C)C)[C@]1(OC(C)=O)CO[C@@H]1C[C@@H]2O [Taxol]
tumor inhibition rates (TGI) (PDX model CS225): 50%

AMG655: DR5 agonistic monoclonal antibody Conatumumab (AMG655, Amgen)
CDI (A549 cells): 0.6362
CDI (MCF-7 cells): 0.317
killing effect (MCF-7 cells; drug alone): significant killing effect
killing effect (MCF-7 cells; used in combination): more significant
CDI (S2VP10 cells): 0.8123

B1: TRAIL: DR5 natural ligand TRAIL (Sino Biological) (protein, UniProt P50591 1-281, looked up)
Tumor necrosis factor ligand …: MAMMEVQGGPSLGQTCVLIVIFTVLLQSLCVAVTYVYFTNELKQMQDKYSKSGIACFLKEDDSYWDPNDEESMNSPCWQVKWQLRQLVRKMILRTSEETISTVQEKQQNISPLVRERGPQRVAAHITGTRGRSNTLSSPNSKNEKALGRKINSWESSRSGHSFLSNLHLRNGELVIHEKGFYYIYSQTYFRFQEEIKENTKNDKQMVQYIYKYTSYPDPILLMKSARNSCWSKDAEYGLYSIYQGGIFELKENDRIFVSVTNEHLIDMDHEASFFGAFLVG
CDI (A549 cells): 0.7329
CDI (MCF-7 cells): 0.3303
killing effect (MCF-7 cells; drug alone): did not have a significant killing effect
CDI (S2VP10 cells): 0.5179
